Values joined by “and” are separate entries in the source; they are usually repeats but may differ in a detail not shown here. Identical values can stand only once. “Also recorded” adds a separate entry of the source.
Tests used:
[1] = tested on: Balb/c mice exposed to acute treatment with Oxaliplatin; experiment: Cold plate test after a single oxaliplatin administration; type: in vivo, mouse; details: 48 hours after single OXA 3.5 mg/kg iv, DTG 4 mg/kg ip 1 hour before
Description: OXA vehicle, OXA, CPC, DTG, DTG+OXA and CPC+OXA were administered once time. In the group co-administered with OXA and DTG. DTG was injected intraperitoneally 1 hour before the administration of OXA. In the group co-administered with OXA and CPC, CPC was co-administered with OXA intravenously. Mechanical allodynia and cold sensory threshold (dynamic test and cold plate test) were performed 24 and 48 hours after the treatment, respectively, using the methods described in EXAMPLE 15 Plasma Sample Collection

[2] = tested on: Balb/c mice exposed to chronic treatment with Oxaliplatin; experiment: Caudal nerve conduction study in chronic oxaliplatin neuropathy model; type: in vivo, mouse; details: for caudal nerve action potential amplitude / caudal nerve conduction velocity: OXA 3.5 mg/kg iv, 8 cycles ± BFMD 30 mg/kg ip + 15 mg/kg iv
Description: The development of peripheral neuropathy after chronic administration of drugs was assessed by evaluating the nerve conduction velocity (NCV) along caudal and digital nerve using an electromyography apparatus (Myto2 ABN Neuro, Firenze, Italy). Caudal NCV was determined by placing a couple of recording needle electrodes at the base of the tail and a couple of stimulating needle electrodes 3.5 cm distally to the recording points. Similarly, the digital NCV was determined by placing the recording electrodes close to the ankle bone and the stimulating electrodes close to the fourth toe near the digital nerve. The intensity, duration and frequency of stimulation were set up in order to obtain optimal results. All the neurophysiological determinations were performed under standard conditions in a temperature-controlled room (22+/−2° C.) and the animal under isoflurane anesthesia along the whole procedure with continuous monitoring of vital signs.

[3] = Tissue platinum accumulation by atomic absorption after 8 cycles of oxaliplatin; type: in vivo, mouse; details: buflomedil 80 mg/kg po; 8 cycles OXA; 24 h after last administration
Description: At the end of 8 cycles of treatment, cold plate test, dynamic test and NCS test were conducted in all mice. Platinum content in DRG, Sciatic nerves and kidney of 3 mice each in the OXA and OXA+BFMD groups, was measured using the method below. The tissue total platinum concentration was determined on frozen sciatic nerve. […] For each tissue, a calibration with control standard tissue was generated. All frozen test samples and standards were treated for a digestion process with a specific HNO3: HCl solution (1:3). The samples obtained after digestion were analyzed by “Atomic Absorption” (Analyst 600 Perkin Elmer, Monza, Italy), and platinum tissue concentration was calculated accordingly.

[4] = tested on: MDCK cells expressing OCT2, MATE1 and MATE2K; experiment: LDH cytotoxicity of cisplatin in MDCK-II triple-transporter model; type: cell-based, canine; details: 6 μM buflomedil; 1 mM cisplatin; FIG. 7
Description: A triple-transporter model for OCT2(SLC22A2), MATE1(SLC47A1), and MATE2-K(SLC47A2) was created by transfecting fully confluent MDCK-II cell monolayers with DNA mixture containing the plasmids encoding OCT2, MATE1, and MATE-2K at concentrations of 40, 15, and 5 ng/μl, respectively. […] This systems were cultured in complete medium consisting of Dulbecco's modified Eagle's medium without phenyl-red with 10% fetal bovine serum in an atmosphere of 5% CO2-95% air at 37° C. The apical medium was adjusted to pH 6.7 with 25 mM of 2-(N-morpholino) ethanesulfonic acid (MES).
Dolutegravir was tested at 10 μM. […] Cytotoxicity was tested using the same procedure described above.

[5] = tested on: cells co-expressing OCT2 and MATE1; experiment: Intracellular oxaliplatin content in cells co-expressing OCT2 and MATE1; type: cell-based; details: oxaliplatin 100 μM in 4% BSA HBSS, 90 min
From the text: In most naturally occurring cells, uptake transporters co-exist with efflux transporters. It is the interplay between the uptake and efflux transporters that determines the net intracellular accumulation of a substrate. One example is in the proximal tubule epithelial cells in the kidney, where the basolaterally expressed transporters, mainly OCT2, work in concert with the apically expressed MATE1 and MATE2K [5]. […] Cells with single expression of OCT2 or GFP mock were also used as a control.

OCT2 and MATE1 = experiment: Buflomedil inhibition of OCT2 and MATE1 with metformin as substrate (FIG. 15A); type: cell-based, human
[6] = Buflomedil plasma concentration in Balb/C mice after IV and IP administration; type: in vivo; details: male, mouse
Description: Male mice of 7-8 weeks of age were allowed to acclimate for 6 days. […] Blood was collected at 0.083, 0.5, and 1 hour into Heparin tubes. The plasma was obtained through centrifugation of the blood at 4000 rpm at 4° C.
For plasma sample analysis, the samples were thawed and mixed well before 20 µL aliquots were processed using protein precipitation by internal standard (Verapamil) containing organic solution, methanol: acetonitrile 5:95 (v/v). After vigorous vortexing and refrigerated centrifugation at 4000 rpm, 50 μL of the extract from each sample was reconstituted with 70 μL of 0.1% formic acid in water. […] The calibration curve was extracted in the same way as the plasma samples. The final extracts were analyzed by LC-MS/MS using positive electrospray ionizations under the multiple-reaction-monitoring (MRM) mode for the detection of buflomedil. The standard curve fitted by linear regression was used to quantify the analyte in the matrix using Analyst 1.5.2 software (AB Sciex) Results

[7] = cited from earlier work
[8] = tested on: Balb/c mice exposed to chronic treatment with Oxaliplatin; experiment: Cold Plate Test in chronic oxaliplatin neuropathy model; type: in vivo, mouse; details: for Cold Plate Test pain signs after third injection / Cold Plate Test pain signs at the end of treatment (eight injections): OXA 3.5 mg/kg iv ± BFMD 30 mg/kg ip + 15 mg/kg iv; for Cold Plate Test pain signs after third injection: 3 cycles
Description: Cold Plate Test was used to determine the alterations in cold temperature related pain perception and their changes due to pharmacological treatment. Cold Plate Test was performed by using an apparatus (35100—Hot/Cold Plate. Ugo Basile instruments) composed by a Plexiglas cylinder and a thermostatic plate, able to reach variable temperatures. The mice were placed on the plate set at +4° C., free to move and walk. Two blinded experimenters simultaneously determine the number of pain signs (e.g. jumping, licking, etc.) in a trial of 5 minutes.

[9] = buflomedil 80 mg/kg po 2 hours before OXA, 8 cycles, n=3/group

Structure (SMILES): C[C@@H]1CCO[C@H]2Cn3cc(C(=O)NCc4ccc(F)cc4F)c(=O)c(O)c3C(=O)N12 [Dolutegravir]
- cold allodynia, cold plate [1]: effective on reducing cold hypersensitivity
- cold allodynia, cold plate ([1]; listed as DTG): protects the animal from cold allodynia

Structure (SMILES): COc1cc(OC)c(C(=O)CCCN2CCCC2)c(OC)c1 [Buflomedil, 4-pyrrolidin-1-yl-1-(2,4,6-trimethoxyphenyl)butan-1-one]
- caudal nerve action potential amplitude ([2]; listed as BFMD): no statistically significant difference among CTRL. BFMD and OXA+BFMD groups
- caudal nerve conduction velocity ([2]; listed as BFMD): small but statistically significant increase when compared to OXA alone
- caudal nerve action potential amplitude ([2]; listed as buflomedil): effective on reducing peripheral neurotoxicity
- caudal nerve conduction velocity ([2]; listed as buflomedil): effective on reducing peripheral neuropathy
- nerve injury assessed by caudal NCV [2, 9]: effective on reducing nerve injury; also recorded: showed protective effects against OXAIPN
- platinum (oxaliplatin) accumulation in DRG [3]: effective on reducing platinum accumulation in DRG; also recorded: significant decrease in oxaliplatin accumulation in DRG
- platinum (oxaliplatin) accumulation in kidney [3]: effective on reducing platinum accumulation; also recorded: reduced oxaliplatin accumulation in the kidney
- platinum (oxaliplatin) accumulation in sciatic nerves [3]: such decrease was not seen in sciatic nerves
- effect on cisplatin cytotoxicity [4]: significantly reduced cytotoxicity from 1 mM of cisplatin
- cellular accumulation of oxaliplatin in cells co-expressing OCT2 and MATE1 [5]: reduced cellular accumulation of oxaliplatin
- inhibition selectivity between OCT2 and MATE1, metformin as substrate (OCT2 and MATE1): no inhibition selectivity between OCT2 and MATE1
- concentration at 10 min ([6]; Balb/C, other: IV/IP (intravenous group and intraperitoneal groups), 10 mg/kg IV, 20 or 40 mg/kg IP, each group): > 2000 ng/mL
- bioavailability ([6]; ip, Balb/C mice, read-out: estimated bioavailability of IP administration): 40 to 60%
- plasma level associated with serious toxicities ([7]; European Medicines Agency 2012, Bourguignon 2012): above 10 mg/I and > 32.5 uM
- MTC (maximum tolerable concentration) ([7]; plasma): 10 mg/I
- Cold Plate Test pain signs after third injection ([8]; listed as BFMD): only the group treated with OXA alone showed a significant increase in pain signs
- Cold Plate Test pain signs after third injection ([8]; listed as buflomedil): effective on reducing cold allodynia
- Cold Plate Test pain signs at the end of treatment (eight injections) ([8]; 8 cycles, listed as BFMD): significant decrease in pain signs versus OXA alone
- Cold Plate Test pain signs at the end of treatment (eight injections) ([8]; 8 cycles, listed as buflomedil): effective on reducing cold allodynia
- cold allodynia (cold plate test) [8, 9]: effective on reducing mechanical (FIG. 30A) and cold (FIG. 30B) allodynia; also recorded: showed protective effects against OXAIPN
